The results in this text go back to EP0143109A1, “Pranoprofen gelled ointment” (priority 1983, dated 1985).

For data set [1] the following is noted: rat, in vivo.
Data set [2] can be described thus: Percutaneous absorption and excretion (Experiment 8). To be noted: after removing the unabsorbed ointment 6 hours after application.

As to `CC(C(=O)O)c1ccc2c(c1)Cc1cccnc1O2` (centres unmarked) [pranoprofen, Pranoprofen], the excretion route result in data set [1] was “excreted mainly into urine and feces”. The “half-life of blood level” value in data set [2] was “about 5 hours”.
